Where two headings read alike, the source gives them in different places.
Columns and labels:
ERBB3 = experiment: Kinobeads competition binding: ERBB3; set-up: species or system human; settings: target ERBB3;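 note: selectivity score: engagement of this protein divided by summed engagement of all targets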
ERN1 = target: T1, ERN1 (Homo sapiens, UniProt O75460); experiment: Kinobeads competition binding: ERN1; settings: target ERN1
T1 construct: endogenous in cells
Text: Supplement 41589_2023_1459_MOESM4_ESM.xlsx, sheet "CATDS matrix" | column: ERN1

EPHB6 = target: T2, EPHB6 (Homo sapiens, UniProt O15197); experiment: Kinobeads two-dose competition binding: EPHB6; settings: target EPHB6
T2 construct: to maximize the representation of endogenous proteins; endogenous in cells
T2 sequence (O15197 32-1021): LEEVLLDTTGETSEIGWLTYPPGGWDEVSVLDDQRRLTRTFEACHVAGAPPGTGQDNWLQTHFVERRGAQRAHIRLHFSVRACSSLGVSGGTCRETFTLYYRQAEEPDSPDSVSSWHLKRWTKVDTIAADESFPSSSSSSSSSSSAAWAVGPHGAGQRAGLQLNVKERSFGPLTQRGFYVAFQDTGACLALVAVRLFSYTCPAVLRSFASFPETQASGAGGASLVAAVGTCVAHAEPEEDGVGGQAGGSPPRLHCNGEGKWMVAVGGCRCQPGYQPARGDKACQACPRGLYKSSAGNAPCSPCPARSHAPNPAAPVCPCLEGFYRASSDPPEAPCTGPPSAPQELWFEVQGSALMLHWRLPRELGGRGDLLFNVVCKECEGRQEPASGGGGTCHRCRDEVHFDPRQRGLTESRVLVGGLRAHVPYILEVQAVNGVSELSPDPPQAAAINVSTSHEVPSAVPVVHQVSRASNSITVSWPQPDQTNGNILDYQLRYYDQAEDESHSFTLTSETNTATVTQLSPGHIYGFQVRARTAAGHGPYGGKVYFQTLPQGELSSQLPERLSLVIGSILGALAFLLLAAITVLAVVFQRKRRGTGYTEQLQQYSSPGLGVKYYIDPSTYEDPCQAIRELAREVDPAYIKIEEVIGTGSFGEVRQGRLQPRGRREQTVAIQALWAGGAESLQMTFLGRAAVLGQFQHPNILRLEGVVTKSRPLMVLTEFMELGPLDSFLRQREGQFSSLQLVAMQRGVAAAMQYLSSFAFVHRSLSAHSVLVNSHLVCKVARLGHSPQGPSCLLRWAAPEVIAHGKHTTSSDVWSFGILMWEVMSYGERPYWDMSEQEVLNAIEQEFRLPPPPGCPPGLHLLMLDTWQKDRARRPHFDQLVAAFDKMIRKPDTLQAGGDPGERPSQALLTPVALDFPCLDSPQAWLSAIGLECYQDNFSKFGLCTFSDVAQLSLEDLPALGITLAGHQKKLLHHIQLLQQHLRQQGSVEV
Text: Briefly, Kinobeads comprise seven broad-spectrum small molecule kinase inhibitors immobilized on Sepharose beads. […]. Compounds of interest are set to compete for target protein binding with Kinobeads in the lysate and the amount of a given protein bound to Kinobeads in the presence of a compound can be quantified relative to a dimethylsulfoxide (DMSO) vehicle control by label-free mass spectrometry. This assay measures the physical interaction of a compound with thousands of endogenous proteins in parallel and, when systematically increasing the concentration of competitor, enables the calculation of an apparent interaction constant ( Kdapp ) for each compound and protein.
Kinobeads pulldown experiments were performed as described previously[13],[14],[17] with minor modification. […] The protein concentration was adjusted to 5 mg ml^−1. Kinase inhibitors were spiked into 0.5 ml of cell lysate at final concentrations of 100 and 1,000 nM (or DMSO, 0.3, 1, 3, 10, 30, 100, 300 and 1,000 nM for full dose experiments). […] Lysates were incubated for 45 min at 4 °C. Subsequently, lysates were incubated with Kinobeads ε (17.5 µl of settled beads) for 30 min at 4 °C. To assess the degree of protein depletion from the lysates by Kinobeads, the flow through of the DMSO control was recovered for a pulldown of pulldown experiment where the lysate was incubated a second time with fresh Kinobeads. Beads were washed in three steps with buffer containing 0.4%, 0.2% and no IGEPAL. Bound proteins were reduced with 50 mM DTT in 8 M Urea, 40 mM Tris-HCl pH 7.4 for 30 min at room temperature. After alkylation with 55 mM chloroacetamide, the urea concentration was reduced to 1–2 M and proteins were digested with trypsin. Acidified peptides were desalted and concentrated using SepPak tC18 µEluation plates (Waters). Samples were frozen, dried by vacuum centrifugation and stored at −20 °C.
Each kinase inhibitor was processed together with all DMSO controls of the same plate. Additionally, each search was supplemented with five high quality DMSO controls for consistent peptide identification and protein grouping. The resultant file (proteinGroups.txt) was used for subsequent filtering, normalization, data visualization and target annotation that was automatically performed by a data processing pipeline built in house that used R (including the ‘drc’ and ‘heatmap’ packages). First, reverse hits, potential contaminants and not quantified proteins in the DMSO control samples were discarded. Protein raw and label-free quantification intensities were normalized to the median DMSO control intensity to obtain relative residual binding intensities for each protein group at every inhibitor concentration and standard deviations of the DMSO control intensity were calculated. IC50 values were estimated based on the following equation IC50=I×100−inhibition/inhibition where [I] is the inhibitor concentration that was used for IC50 calculation and ‘inhibition’ the relative residual binding intensity. […]. Estimated Kdapp values were then calculated by multiplying the estimated IC50 values with a protein-dependent correction factor that was limited to a maximum value of one. The correction factor accounts for the depletion of a target protein from the lysate by Kinobeads. The depletion can be measured by the ratio of the amount of protein captured in two consecutive pulldowns of the same DMSO control lysate. In this study, correction factors were determined in separate experiments using the same lysate mixture and the same bead batch. Correction factors were set to the median of all correction factors. Targets of kinase inhibitors were annotated using the previously published random forest classifier. A training data set was annotated manually. […]

PKMYT1 = experiment: Kinobeads competition binding: PKMYT1; set-up: species or system human; settings: target PKMYT1
PKN3 = PKN3 (Homo sapiens, UniProt Q6P5Z2); experiment: Kinobeads full dose-response competition binding: PKN3; set-up: endogenous in cells; settings: for Relative Intensity 0.3nM: 0.3nM compound; for Relative Intensity 0.3nM / Relative Intensity 1nM / Relative Intensity 3nM / Relative Intensity 10nM / Relative Intensity 30nM / Relative Intensity 100nM / Relative Intensity 300nM / Relative Intensity 1000nM: DMSO = 1; for Relative Intensity 1nM: 1nM compound; for Relative Intensity 3nM: 3nM compound; for Relative Intensity 10nM: 10nM compound; for Relative Intensity 30nM: 30nM compound; for Relative Intensity 100nM: 100nM compound; for Relative Intensity 300nM: 300nM compound; for Relative Intensity 1000nM: 1000nM compound; for EC50: eight-dose curve fit;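 for all read-outs here: inhibitor pre-incubated 45 min at 4 °C in cell lysate (5 mg/ml protein), then competed against Kinobeads ε pulldown for 30 min, bound kinase quantified by nano LC–MS/MS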
Sequence of PKN3 (Q6P5Z2 whole entry): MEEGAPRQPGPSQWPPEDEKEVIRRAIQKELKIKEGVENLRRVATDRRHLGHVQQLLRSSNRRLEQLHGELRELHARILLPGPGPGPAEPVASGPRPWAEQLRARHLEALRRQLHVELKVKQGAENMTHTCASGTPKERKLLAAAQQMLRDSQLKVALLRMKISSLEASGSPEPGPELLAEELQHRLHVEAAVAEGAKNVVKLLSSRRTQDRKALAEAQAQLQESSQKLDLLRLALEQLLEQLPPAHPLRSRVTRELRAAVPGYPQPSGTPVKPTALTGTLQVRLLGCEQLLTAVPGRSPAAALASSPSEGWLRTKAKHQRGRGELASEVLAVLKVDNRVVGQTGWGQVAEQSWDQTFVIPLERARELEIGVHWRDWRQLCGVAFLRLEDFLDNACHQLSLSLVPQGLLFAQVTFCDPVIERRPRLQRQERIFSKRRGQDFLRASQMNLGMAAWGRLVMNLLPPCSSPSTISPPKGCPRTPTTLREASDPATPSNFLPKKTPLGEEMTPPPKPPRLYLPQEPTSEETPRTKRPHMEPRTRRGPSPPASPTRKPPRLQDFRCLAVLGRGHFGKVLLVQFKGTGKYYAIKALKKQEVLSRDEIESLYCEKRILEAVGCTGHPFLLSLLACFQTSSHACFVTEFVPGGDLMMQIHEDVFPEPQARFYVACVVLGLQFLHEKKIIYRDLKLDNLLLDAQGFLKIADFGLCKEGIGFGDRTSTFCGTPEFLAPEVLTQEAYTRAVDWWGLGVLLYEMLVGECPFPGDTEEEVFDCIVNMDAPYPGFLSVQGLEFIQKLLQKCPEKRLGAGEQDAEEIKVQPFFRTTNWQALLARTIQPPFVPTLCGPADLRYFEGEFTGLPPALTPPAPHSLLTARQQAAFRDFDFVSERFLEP

[1] = Gene Name PKN3, EC50 with Correction, doses in nM, read-out: apparent Kd
[2] = Kinobeads full dose-response, read-out: Kdapp PKN3

T1 sequence (O75460 19-977): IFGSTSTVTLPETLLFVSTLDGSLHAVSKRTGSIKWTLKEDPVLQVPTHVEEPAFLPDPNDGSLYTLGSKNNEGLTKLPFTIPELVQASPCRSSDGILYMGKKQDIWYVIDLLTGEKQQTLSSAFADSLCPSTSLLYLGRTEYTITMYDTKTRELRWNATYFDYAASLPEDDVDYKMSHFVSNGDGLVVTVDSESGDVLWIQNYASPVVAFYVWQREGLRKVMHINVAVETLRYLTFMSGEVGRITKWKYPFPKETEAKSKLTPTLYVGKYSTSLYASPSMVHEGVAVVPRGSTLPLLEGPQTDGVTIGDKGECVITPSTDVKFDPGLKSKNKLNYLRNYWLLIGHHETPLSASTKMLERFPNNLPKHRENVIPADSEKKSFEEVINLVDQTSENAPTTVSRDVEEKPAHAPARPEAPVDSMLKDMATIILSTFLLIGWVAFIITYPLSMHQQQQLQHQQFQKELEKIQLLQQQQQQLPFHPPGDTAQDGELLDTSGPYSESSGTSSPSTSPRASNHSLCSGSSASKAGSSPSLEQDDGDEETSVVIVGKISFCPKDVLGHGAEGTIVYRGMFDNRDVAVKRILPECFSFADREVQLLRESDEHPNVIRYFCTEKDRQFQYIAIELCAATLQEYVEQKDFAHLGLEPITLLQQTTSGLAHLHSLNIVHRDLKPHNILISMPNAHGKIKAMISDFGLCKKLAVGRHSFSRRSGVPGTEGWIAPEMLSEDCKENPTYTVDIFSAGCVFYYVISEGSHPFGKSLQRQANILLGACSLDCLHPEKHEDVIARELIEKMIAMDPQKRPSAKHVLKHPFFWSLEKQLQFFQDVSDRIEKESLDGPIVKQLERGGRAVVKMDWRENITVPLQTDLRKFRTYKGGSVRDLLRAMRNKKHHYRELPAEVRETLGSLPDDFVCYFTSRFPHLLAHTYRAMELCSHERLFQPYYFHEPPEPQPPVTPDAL

SMILES | CATDS (ERBB3) | CATDS (ERN1) | CATDS (EPHB6) | CATDS (PKMYT1) | Relative Intensity 0.3nM (PKN3; Gene Name PKN3) | Relative Intensity 1nM (PKN3; Gene Name PKN3) | Relative Intensity 3nM (PKN3; Gene Name PKN3) | Relative Intensity 10nM (PKN3; Gene Name PKN3) | Relative Intensity 30nM (PKN3; Gene Name PKN3) | Relative Intensity 100nM (PKN3; Gene Name PKN3) | Relative Intensity 300nM (PKN3; Gene Name PKN3) | Relative Intensity 1000nM (PKN3; Gene Name PKN3) | Kd (PKN3; [1]) [nM] | EC50 (PKN3; Gene Name PKN3, doses in nM) [nM] | Kd (PKN3; [2]) [nM]
Nc1ncnc2[nH]c(-c3ccccc3)nc12 [AH5015_KCGS] | 0 | 0 | 0 | 0 | – | – | – | – | – | – | – | – | – | – | –
CCN1CCN(Cc2ccc(Nc3ncc(F)c(-c4cc(F)c5nc(C)n(C(C)C)c5c4)n3)nc2)CC1 [Abemaciclib] | 0 | 0 | 0 | 0 | – | – | – | – | – | – | – | – | – | – | –
CN(C)C/C=C/C(=O)Nc1cc2c(Nc3ccc(F)c(Cl)c3)ncnc2cc1O[C@H]1CCOC1 [Afatinib] | – | 0 | 0 | – | – | – | – | – | – | – | – | – | – | – | –
CCc1cc2c(cc1N1CCC(N3CCOCC3)CC1)C(C)(C)c1[nH]c3cc(C#N)ccc3c1C2=O [Alectinib] | 0 | 0 | 0 | 0 | – | – | – | – | – | – | – | – | – | – | –
N#CC1(c2ccc(NC(=O)c3cccnc3NCc3ccncc3)cc2)CCCC1 [Apatinib] | 0 | 0 | 0 | 0 | – | – | – | – | – | – | – | – | – | – | –
CCn1c(-c2nonc2N)nc2c(C#CC(C)(C)O)nc(OCCN)cc21 [GSK902056A] | – | – | – | – | 1.0043 | 0.9527 | 0.8181 | 0.5011 | 0.201 | 0 | 0 | 0 | 10.2 | 10.2 | 10
CCn1c(-c2nonc2N)nc2c(C#CC(C)(C)O)nc(OCCNC)cc21 [GSK949675A] | – | – | – | – | 1.302 | 1.271 | 1.02 | 1.139 | 0.7655 | 0.7191 | 0 | 0 | 89.8 | 89.8 | 90
NCc1ccc(-c2nc(-c3ccncc3)c(-c3ccc(Cl)c(O)c3)[nH]2)cc1 [SB-476429-A] | – | – | – | – | 1.299 | 1.281 | 1.311 | 1.076 | 0.6326 | 0.3718 | 0 | 0 | 38.4 | 38.4 | 38

Reference: paper PMC11062922 (Nature Chemical Biology, 2023)
